Measured values reported in ChEMBL document CHEMBL2074152, “Structural determinants of substrates for the prostaglandin transporter PGT” (Mol Pharmacol, 1996).

Biological target: Solute carrier organic anion transporter family member 2A1 (Rattus norvegicus, UniProt Q00910)
Test: TP_TRANSPORTER: inhibition of PGE2 uptake in PGT-expressing HeLa cells
Assay type: functional, cell-based

Ki	SMILES
0.286 µM	CCCCC[C@H](O)/C=C/[C@H]1C=CC(=O)[C@@H]1CCCCCCC(=O)O [PROSTAGLANDIN A1]
0.0712 µM	CCCCC[C@H](O)/C=C/C1=C(CCCCCCC(=O)O)C(=O)CC1 [PROSTAGLANDIN B1]
0.162 µM	CCCCC[C@H](O)/C=C/[C@H]1C(=O)C[C@H](O)[C@@H]1CCCCCCC(=O)O [PROSTAGLANDIN D1]

SMILES	Ki
CCCCC[C@H](O)/C=C/[C@@H]1[C@@H](C/C=C\CCCC(=O)O)[C@@H]2C[C@H]1OO2 [PROSTAGLANDIN H2]	0.0382 µM
